Reference: US12084420B2, “Indoline compounds for inhibiting KIF18A” (Volastra Therapeutics, Inc., priority 2021, dated 2024)

What was measured:
[1] = target: hKIF18A (1-374) (Homo sapiens (Human), UniProt Q8NI77); assay: Inhibition of KIF18A microtubule-dependent ATPase activity (ADP-Glo); conditions: KIF18A microtubule-dependent ATPase activity, biochemical assay
[2] = target: KIF18a-Microtubule Complex (Homo sapiens (Human), UniProt Q8NI77); assay: Binding kinetics to KIF18a-microtubule complex (global progress curve analysis); conditions: for koff (off-rate from binding kinetics assay) / kon (on-rate from binding kinetics assay): global progress curve analysis; for Ki: read-out: KI (determined from binding kinetic assay koff/kon), koff/kon
Protocol: Binding Kinetics to KIF18a-Microtubule Complex
Compound binding kinetics parameters (kon and koff) were determined by the method of global progress curve analysis (GPCA). […] ADP product levels were determined by the Promega® ADP-Glo assay. The time/dose-dependent progress curves were then globally fit to a Michaelis-Menten kinetics model with 1-step slow binding inhibition to derive both on-rate kon and off-rate koff values (Zhang, R., Wong, K. (2017): “High performance enzyme kinetics of turnover, activation and inhibition for translational drug discovery”, Expert Opinion on Drug Discovery, 2017 January; 12(1):17-37. doi: 10.1080/17460441.2017.1245721).

Sequence of hKIF18A (1-374) (Q8NI77 whole entry, looked up): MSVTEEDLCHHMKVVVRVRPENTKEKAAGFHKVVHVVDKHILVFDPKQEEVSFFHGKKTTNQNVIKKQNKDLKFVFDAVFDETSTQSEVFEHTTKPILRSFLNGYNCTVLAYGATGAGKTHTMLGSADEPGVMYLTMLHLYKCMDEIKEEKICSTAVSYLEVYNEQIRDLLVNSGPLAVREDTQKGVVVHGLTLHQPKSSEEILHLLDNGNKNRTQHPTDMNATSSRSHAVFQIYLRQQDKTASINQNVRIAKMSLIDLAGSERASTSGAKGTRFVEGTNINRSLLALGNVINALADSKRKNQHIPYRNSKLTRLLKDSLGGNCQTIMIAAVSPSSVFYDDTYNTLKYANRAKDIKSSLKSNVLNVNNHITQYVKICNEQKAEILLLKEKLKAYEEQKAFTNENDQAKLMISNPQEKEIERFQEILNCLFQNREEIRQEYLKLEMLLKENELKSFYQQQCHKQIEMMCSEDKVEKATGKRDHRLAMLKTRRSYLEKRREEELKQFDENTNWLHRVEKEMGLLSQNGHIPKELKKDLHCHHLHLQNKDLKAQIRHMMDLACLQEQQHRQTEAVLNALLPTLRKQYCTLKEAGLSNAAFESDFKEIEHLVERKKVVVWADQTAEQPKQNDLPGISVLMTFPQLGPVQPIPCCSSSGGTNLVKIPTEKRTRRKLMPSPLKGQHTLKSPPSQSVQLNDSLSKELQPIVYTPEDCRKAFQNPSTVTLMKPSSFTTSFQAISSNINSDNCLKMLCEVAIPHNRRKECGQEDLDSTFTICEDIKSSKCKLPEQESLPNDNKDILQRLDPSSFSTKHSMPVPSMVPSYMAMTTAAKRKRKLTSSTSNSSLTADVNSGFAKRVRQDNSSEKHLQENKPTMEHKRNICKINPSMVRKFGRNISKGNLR
Sequence of hKIF18A (1-374) (Q2XVP4 whole entry partner, looked up): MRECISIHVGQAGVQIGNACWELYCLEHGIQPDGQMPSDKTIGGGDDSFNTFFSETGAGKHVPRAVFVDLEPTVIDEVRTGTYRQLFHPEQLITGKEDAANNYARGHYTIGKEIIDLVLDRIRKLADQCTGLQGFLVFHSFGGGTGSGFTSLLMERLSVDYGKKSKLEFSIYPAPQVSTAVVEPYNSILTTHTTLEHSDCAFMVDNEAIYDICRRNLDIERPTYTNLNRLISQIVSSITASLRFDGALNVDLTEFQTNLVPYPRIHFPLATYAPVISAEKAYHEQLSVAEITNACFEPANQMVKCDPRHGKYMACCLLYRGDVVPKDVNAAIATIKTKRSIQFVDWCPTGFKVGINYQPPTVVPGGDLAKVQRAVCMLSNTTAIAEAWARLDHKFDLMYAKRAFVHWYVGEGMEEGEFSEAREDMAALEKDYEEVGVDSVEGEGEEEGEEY
Sequence of hKIF18A (1-374) (P02554 whole entry partner, looked up): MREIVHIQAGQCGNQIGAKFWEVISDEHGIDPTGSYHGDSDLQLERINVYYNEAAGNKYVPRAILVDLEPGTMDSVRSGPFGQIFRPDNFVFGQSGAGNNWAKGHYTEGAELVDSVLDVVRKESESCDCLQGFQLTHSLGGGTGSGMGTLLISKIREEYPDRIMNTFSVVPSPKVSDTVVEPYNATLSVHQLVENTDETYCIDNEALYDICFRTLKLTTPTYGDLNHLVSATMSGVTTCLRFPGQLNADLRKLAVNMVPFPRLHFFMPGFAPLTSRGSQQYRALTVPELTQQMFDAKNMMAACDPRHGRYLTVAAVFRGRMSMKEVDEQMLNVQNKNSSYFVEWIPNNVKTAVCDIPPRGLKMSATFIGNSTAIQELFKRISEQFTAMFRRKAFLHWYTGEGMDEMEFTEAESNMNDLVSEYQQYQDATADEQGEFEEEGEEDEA
Sequence of KIF18a-Microtubule Complex (Q8NI77 whole entry, looked up): as the sequence (Q8NI77 whole entry, looked up) above
Sequence of KIF18a-Microtubule Complex (Q2XVP4 whole entry partner, looked up): as the sequence (Q2XVP4 whole entry partner, looked up) above
Sequence of KIF18a-Microtubule Complex (P02554 whole entry partner, looked up): as the sequence (P02554 whole entry partner, looked up) above

| Compound | IC50 [1] | further results |
| --- | --- | --- |
| CS(=O)(=O)Nc1ccc2c(c1)C1(CCC3(CC3)CC1)CN2C(=O)c1cccc([C@@H](O)C2CCCC2)n1 (single isomer, unassigned) [Compound 317a] | 11 nM | koff (off-rate from binding kinetics assay) [2]: 9.17e-05 s⁻¹; kon (on-rate from binding kinetics assay) [2]: 9170 M⁻¹ s⁻¹; disc. t1/2 (dissociation half-life ln(2)/koff) [2]: 2.1 h; Ki [2]: 10 nM |
| CS(=O)(=O)Nc1ccc2c(c1)C1(CCC3(CC3)CC1)CN2C(=O)c1cccc([C@H](O)C2CCCC2)n1 (single isomer, unassigned) [Compound 317b] | 10 nM | koff (off-rate from binding kinetics assay) [2]: 9.72e-05 s⁻¹; kon (on-rate from binding kinetics assay) [2]: 16400 M⁻¹ s⁻¹; disc. t1/2 (dissociation half-life ln(2)/koff) [2]: 2.0 h; Ki [2]: 5.9 nM |
| CS(=O)(=O)Nc1ccc2c(c1)C1(CCC3(CC3)CC1)CN2C(=O)c1cccc([C@H](O)C2CC(F)(F)C2)c1 (single isomer, unassigned) [Compound 351a] | 8.7 nM | koff (off-rate from binding kinetics assay) [2]: 0.000114 s⁻¹; kon (on-rate from binding kinetics assay) [2]: 19400 M⁻¹ s⁻¹; disc. t1/2 (dissociation half-life ln(2)/koff) [2]: 1.7 h; Ki [2]: 5.8 nM |
| CS(=O)(=O)Nc1ccc2c(c1)C1(CCC3(CC3)CC1)CN2C(=O)c1cccc(S(=O)(=O)N2CC[C@@H](F)C2)c1 [(R)-Compound 239, (R)-N-(1″-(3-((3-fluoropyrrolidin-1-yl)sulfonyl)benzoyl)dispiro[cyclopropane-1,1′-cyclohexane-4′,3″-indolin]-5″- yl)methanesulfonamide] | 9.3 nM | kon (on-rate from binding kinetics assay) [2]: 16700 M⁻¹ s⁻¹; disc. t1/2 (dissociation half-life ln(2)/koff) [2]: 8.1 h; Ki [2]: 1.4 nM; koff ([2]; read-out: koff (off-rate from binding kinetics assay)): 2.39e-05 s⁻¹ |
| CS(=O)(=O)Nc1ccc2c(c1)[C@]1(CC[C@H](C(F)F)CC1)CN2C(=O)c1cccc(S(=O)(=O)NC23CC(C2)C3)c1 [Compound 336b] | 17 nM | – |
| CS(=O)(=O)Nc1ccc2c(c1)C1(CCC3(CC3)CC1)CN2C(=O)c1ccc(F)c(S(=O)(=O)NC23CC(C2)C3)c1 [Compound 337, N-(bicyclo[1.1.1]pentan-1-yl)-2-fluoro-5-(5″-(methylsulfonamido)dispiro[cyclopropane-1,1′-cyclohexane-4′,3″-indoline]-1″- carbonyl)benzenesulfonamide] | 8.8 nM | – |
| CC(C)(C)NS(=O)(=O)c1cccc(C(=O)N2CC3(CCC4(CC4)CC3)c3cc(C(O)C(F)(F)F)ccc32)c1 (stereo not drawn) [Compound 338, N-(tert-butyl)-3-(5″-(2,2,2-trifluoro-1-hydroxyethyl)dispiro[cyclopropane-1,1′-cyclohexane-4′,3″-indoline]-1″-carbonyl)benzenesulfonamide] | 49 nM | – |
| CS(=O)(=O)Nc1ccc2c(c1)C1(CCC3(CC3)CC1)CN2C(=O)c1cccc(C(C#N)C2CCCC2)c1 (stereo not drawn) [Compound 339, N-(1″-(3-(cyano(cyclopentyl)methyl)benzoyl)dispiro[cyclopropane-1,1′-cyclohexane-4′,3″-indolin]-5″- yl)methanesulfonamide] | 24 nM | – |
| CCS(=O)(=O)Nc1ccc2c(c1)C1(CCC3(CC3)CC1)CN2C(=O)c1ccc(F)c(S(=O)(=O)NC(C)(C)C)c1 [Compound 340, N-(tert-butyl)-5-(5″- (ethylsulfonamido)dispiro[cyclopropane-1,1′-cyclohexane-4′,3″-indoline]-1″- carbonyl)-2-fluorobenzenesulfonamide] | 18 nM | – |
| CC(c1cccc(C(=O)N2CC3(CCC4(CC4)CC3)c3cc(NS(C)(=O)=O)ccc32)c1)N1CCC(F)(F)CC1 (stereo not drawn) [Compound 341, N-(1″-(3-(1-(4,4-difluoropiperidin-1-yl)ethyl)benzoyl)dispiro[cyclopropane-1,1′-cyclohexane-4′,3″-indolin]-5″-yl)methanesulfonamide] | 25 nM | – |
| CS(=O)(=O)Nc1ccc2c(c1)C1(CCC3(CC3)CC1)CN2C(=O)c1cccc(CN2CCC(F)(F)CC2)n1 [Compound 342, N-(1″-(6-((4,4-difluoropiperidin-1-yl)methyl)picolinoyl)dispiro[cyclopropane-1,1′-cyclohexane-4′,3″-indolin]-5″- yl)methanesulfonamide] | 20 nM | – |
| Cc1cc(C(=O)N2CC3(CCC4(CC4)CC3)c3cc(NS(C)(=O)=O)ccc32)nc(CN2CCC(F)(F)CC2)n1 [Compound 343, N-(1″-(2-((4,4-difluoropiperidin-1-yl)methyl)-6-methylpyrimidine-4-carbonyl)dispiro[cyclopropane-1,1′-cyclohexane-4′,3″-indolin]-5″- yl)methanesulfonamide] | 810 nM | – |
| CS(=O)(=O)Nc1ccc2c(c1)C1(CCC3(CC3)CC1)CN2C(=O)c1cccc(CN2CC(F)(F)C2)c1 [Compound 345, N-(1″-(3-((3,3-difluoroazetidin-1-yl)methyl)benzoyl)dispiro[cyclopropane-1,1′-cyclohexane-4′,3″-indolin]-5″-yl)methanesulfonamide] | 58 nM | – |
| CS(=O)(=O)Nc1ccc2c(c1)C1(CCC3(CC3)CC1)CN2C(=O)c1cccc(CN2CCCO2)c1 [Compound 346, N-(1″-(3-(isoxazolidin-2-ylmethyl)benzoyl)dispiro[cyclopropane-1,1′-cyclohexane-4′,3″-indolin]-5″- yl)methanesulfonamide] | 310 nM | – |
| CS(=O)(=O)Nc1ccc2c(c1)C1(CCC3(CC3)CC1)CN2C(=O)c1cccc(NC2CCCC2)c1 [Compound 347, N-(1″-(3-(cyclopentylamino)benzoyl)dispiro [cyclopropane-1,1′-cyclohexane-4′,3″- indolin]-5″-yl)methanesulfonamide] | 280 nM | – |
| CN(c1cccc(C(=O)N2CC3(CCC4(CC4)CC3)c3cc(NS(C)(=O)=O)ccc32)c1)C1CCCC1 [Compound 348, N-(1″-(3-(cyclopentyl(methyl)amino)benzoyl)dispiro[cyclopropane-1,1′-cyclohexane-4′,3″-indolin]-5″- yl)methanesulfonamide] | 190 nM | – |
| CS(=O)(=O)Nc1ccc2c(c1)C1(CCC3(CC3)CC1)CN2C(=O)c1cccc(CN2CCC(F)(F)C2)c1 [Compound 349, N-(1″-(3-((3,3-difluoropyrrolidin-1-yl)methyl)benzoyl)dispiro [cyclopropane-1,1′-cyclohexane-4′,3″-indolin]-5″- yl)methanesulfonamide] | 45 nM | – |
| CS(=O)(=O)Nc1ccc2c(c1)C1(CCC3(CC3)CC1)CN2C(=O)c1cccc(C(O)C2CC(F)(F)C2)c1 (stereo not drawn) [Compound 351, N-(1″-(3-((3,3-difluorocyclobutyl)(hydroxyj)methyl)benzoyl)dispiro[cyclopropane-1,1′-cyclohexane-4′,3″-indolin]-5″- yl)methanesulfonamide] | 8.8 nM | – |
| CS(=O)(=O)Nc1ccc2c(c1)C1(CCC3(CC3)CC1)CN2C(=O)c1cccc([C@@H](O)C2CC(F)(F)C2)c1 [Compound 351b] | 12 nM | – |
| CC1(C(O)c2cccc(C(=O)N3CC4(CCC5(CC5)CC4)c4cc(NS(C)(=O)=O)ccc43)c2)CCC1 (stereo not drawn) [Compound 354, N-(1″-(3-(hydroxy(1-methylcyclobutyl)methyl)benzoyl)dispiro[cyclopropane-1,1′-cyclohexane-4′,3″-indolin]-5″- yl)methanesulfonamide] | 14 nM | – |
| CN(C1CC(F)(F)C1)S(=O)(=O)c1cccc(C(=O)N2CC3(CCC4(CC4)CC3)c3cc(NS(C)(=O)=O)ccc32)c1 [Compound 356, N-(3,3-difluorocyclobutyl)-N-methyl-3-(5″- (methylsulfonamido)dispiro[cyclopropane-1,1′-cyclohexane-4′,3″-indoline]-1″-carbonyl)benzenesulfonamide] | 51 nM | – |
| CC(C)(C)CC(O)c1cccc(C(=O)N2CC3(CCC4(CC4)CC3)c3cc(NS(C)(=O)=O)ccc32)c1 (stereo not drawn) [Compound 357, N-(1″-(3-(1-hydroxy-3,3-dimethylbutyl)benzoyl)dispiro[cyclopropane-1,1′-cyclohexane-4′,3″-indolin]-5″-yl)methanesulfonamide] | 11 nM | – |
| CS(=O)(=O)Nc1ccc2c(c1)C1(CCC3(CC3)CC1)CN2C(=O)c1cccc(CN2C[C@@H]3[C@H](C2)C3(F)F)c1 [Compound 358, N-(1″-(3-((6,6-difluoro-3-azabicyclo[3.1.0]hexan-3-yl)methyl)benzoyl)dispiro[cyclopropane-1,1′-cyclohexane-4′,3″-indolin]-5″- yl)methanesulfonamide] | 28 nM | – |
| CC(C)(C)NS(=O)(=O)c1cccc(C(=O)N2C[C@]3(CC[C@H](C(F)(F)F)CC3)c3cc(NS(C)(=O)=O)ccc32)c1 [Compound 361a] | 15 nM | – |
| CC(C)(C)NS(=O)(=O)c1cccc(C(=O)N2C[C@]3(CC[C@@H](C(F)(F)F)CC3)c3cc(NS(C)(=O)=O)ccc32)c1 [Compound 361b] | 100 nM | – |
| CP(=O)(CC1CCC1)c1cccc(C(=O)N2CC3(CCC4(CC4)CC3)c3cc(NS(C)(=O)=O)ccc32)c1 (stereo not drawn) [Compound 362] | 35 nM | – |
| CS(=O)(=O)Nc1ccc2c(c1)C1(CCC3(CC3)CC1)CN2C(=O)c1cc(C(O)C2CCCC2)cs1 (stereo not drawn) [Compound 364, N-(1″-(4-(cyclopentyl(hydroxy)methyl)thiophene-2-carbonyl)dispiro[cyclopropane-1,1′-cyclohexane-4′,3″-indolin]-5″- yl)methanesulfonamide] | 5.1 nM | – |
| CS(=O)(=O)Nc1ccc2c(c1)C1(CCC3(CC3)CC1)CN2C(=O)c1ccc(C(O)C2CC(F)(F)C2)o1 (stereo not drawn) [Compound 369, N-(1″-(5-((3,3-difluorocyclobutyl)(hydroxy)methyl)furan-2-carbonyl)dispiro[cyclopropane-1,1′-cyclohexane-4′,3″-indolin]-5″- yl)methanesulfonamide] | 7.1 nM | – |
| N-(1-hydroxy-2-methylpropan-2-yl)-3- (5″- (methylsulfonamido)dispiro[cyclopropane- 1,1′-cyclohexane-4′,3″-indoline]- 1″-carbonyl)benzenesulfonamide [Compound 194] | 50 nM | – |
